Like-named read-outs stand apart in the source and are kept apart here.
Columns and labels:
[1] = system: Poliovirus-2; experiment: organism not typed; assay type: cell-based
[2] = Inhibition of cell growth (microscopic cell count); assay type: cell-based, Buffalo green monkey; details: monkey, bgm-70 cells, read-out: % Reduction of cell growth
Experimental: a MASHII cell harvester and placed in a scintillation counter to determin
incorporation of labelled compound and level of toxicity. BGM 70 cells ar
seeded at a concentration of […] per well in a 24well tissue cultur
plate. Cells are planted in 2 mL of growth medium with or without the tes
compound and are incubated at 37° C. for 38 hours. At 24 hours
medium is removed from onehalf of the plates and the cells are fixed and
stained with crystal violet. The remaining cultures are fixed and stained
^b BGM 70 cells are counted microscopically and comparisons are made.
Experiments are performed blindly by assigning each compound concentratio
a letter code. The code is broken after the cells are counted.
The effect of the compounds on the inhibition of cell growth is determined using BGM-70 cells grown in vitro. For this assay, BGM 70 cells are seeded at a concentration of approximately 70 cells per well in 24-well tissue culture plates. Cells are planted in 2 ml of growth medium with or without the test compound and are incubated at 37° C. for 48 hours. At 24 hours, cells from one half of the plates are fixed and stained with crystal violet. The remaining cultures are fixed and stained at 48 hours. Cells are counted microscopically and comparisons are made between non-treated (control) and treated cells.

[3] = system: HSV-2; experiment: Extracellular activity, inhibition of plaque forming units, HSV-2; details: for extracellular antiviral activity: HSV-2, 10 μM; for Plaque Forming Units Mean ± SD: extracellular
[4] = system: HSV-2; experiment: HSV-2 plaque size, extracellular treatment; assay type: cell-based, Herpes simplex virus type 2; details: for Mean plaque diameter (±SD), Treated: extracellularly; for reduction in plaque size: virus treated extracellularly
[5] = system: VSV; experiment: microbe, parasite or virus in culture; assay type: cell-based, Vesicular stomatitis virus
[6] = system: Poliovirus-2; experiment: organism not typed; assay type: cell-based; remark: listed apart in the source
[7] = system: HSV-1; experiment: Extracellular activity, inhibition of plaque forming units, HSV-1; details: for extracellular antiviral activity: HSV-1, 10 μM; for inhibition at 20 µM: HSV-1 + 2 × Cmpd (20 μM); for Plaque Forming Units Mean ± SD: extracellular
[8] = listed as 3,4-dihydroxy-2H-1-benzopyran-2-one

## O=c1oc2ccccc2c(O)c1O [Compound 5, 3,4-dihydroxy-2H-1-benzopyran-2-one]
[1]; poliovirus-2, n=2
  extracellular antiviral activity: no antiviral activity
[1]; read-out: % Inhibition of Plaque Forming Units, Extracellularly
  inhibition at 10 µM: 2.7%
[2]; 24 h, 10.0 μmol/L
  inhibition at 24 h, 10 µM: 0%
[2]; 24 h, 50.0 μmol/L
  inhibition at 24 h, 50 µM: 5.9 ± 0.5%
[2]; 24 h, 100.0 μmol/L
  inhibition at 24 h, 100 µM: 47.8 ± 9%
[2]; 48 h, 10.0 μmol/L
  inhibition at 48 h, 10 µM: 0.4%
[2]; 48 h, 50.0 μmol/L
  inhibition at 48 h, 50 µM: 8.7 ± 2.8%
[2]; 48 h, 100.0 μmol/L
  inhibition at 48 h, 100 µM: 54.1 ± 3.2%
[3]
  extracellular antiviral activity: shows both intra- and extra- cellular antiviral activity
[3]; [8]
  extracellular antiviral activity: exhibits both intracellular and extracellular activity
[3]; Human alphaherpesvirus 2, extracellular, HSV-2 + 1 × Cmpd (10 μM), relative viral conc 10
  inhibition at 10 µM: 64%
[3]; Human alphaherpesvirus 2, extracellular, HSV-2 + 1 × Cmpd (10 μM), relative viral conc 100
  inhibition at 10 µM: 77%
[3]; Human alphaherpesvirus 2, extracellular, HSV-2 + 2 × Cmpd (20 μM), relative viral conc 10
  inhibition at 20 µM: 96%
[3]; Human alphaherpesvirus 2, extracellular, HSV-2 + 2 × Cmpd (20 μM), relative viral conc 100
  inhibition at 20 µM: 95%
[3]; Human alphaherpesvirus 2, read-out: % Inhibition of PFU, EA (extracellular activity), HSV-2, 10.0 μmol/L
  inhibition at 10 µM: 81%
[3]; Human alphaherpesvirus 2, read-out: % Inhibition of Plaque Forming Units, Extracellularly, HSV-2, 10 μM (Table IV)
  inhibition at 10 µM: 81 ± 4%
[3]; Human alphaherpesvirus 2, read-out: reduction (PFU), extracellularly, HSV-2, 10 μM level, P<0.01
  inhibition at 10 µM: 76 to 98%
[3]; comparison with clofibric acid, P<0.01
  inhibition, extracellular treatment of HSV-2: 63+/-4%
[3]; HSV-2 + 1 × Cmpd (10 μM), relative viral conc 10
  Plaque Forming Units Mean ± SD: 5.3 ± 1.5
[3]; HSV-2 + 1 × Cmpd (10 μM), relative viral conc 100
  Plaque Forming Units Mean ± SD: 49.3 ± 4.5
[3]; HSV-2 + 2 × Cmpd (20 μM), relative viral conc 10
  Plaque Forming Units Mean ± SD: 0.6 ± 0.6
[3]; HSV-2 + 2 × Cmpd (20 μM), relative viral conc 100
  Plaque Forming Units Mean ± SD: 9.7 ± 1.5
[4]; Human alphaherpesvirus 2, extracellularly, 10 μM, relative viral conc 1, read-out: % Inhib (mean plaque diameter)
  inhibition at 10 µM: 6%
[4]; Human alphaherpesvirus 2, extracellularly, 10 μM, relative viral conc 10, read-out: % Inhib (mean plaque diameter)
  inhibition at 10 µM: 1%
[4]; Human alphaherpesvirus 2, extracellularly, 20 μM, relative viral conc 10, read-out: % Inhib (mean plaque diameter)
  inhibition at 20 µM: 1%
[4]; 10 μM, relative viral conc 1
  Mean plaque diameter (±SD), Treated: 449 ± 70 micrometers
[4]; 10 μM, relative viral conc 10
  Mean plaque diameter (±SD), Treated: 500 ± 100 micrometers
[4]; 20 μM, relative viral conc 10
  Mean plaque diameter (±SD), Treated: 486 ± 80 micrometers
[4]; 10 μM
  reduction in plaque size: no significant reduction
[4]; 10 μM, listed as 3,4-dihydroxy-2H-1-benzopyran-2-one
  reduction in plaque size: no reduction in plaque size
[5]; VSV, n=2
  extracellular antiviral activity: no antiviral activity
[5]; Vesicular stomatitis virus, read-out: % Inhibition of Plaque Forming Units, Extracellularly
  inhibition at 10 µM: 0%
[6]; poliovirus-2, n=2
  intracellular antiviral activity: no antiviral activity
[6]; read-out: % Inhibition of Plaque Forming Units, Intracellularly
  inhibition at 10 µM: 2.1%
[7]
  extracellular antiviral activity: shows both intra- and extra- cellular antiviral activity
[7]; [8]
  extracellular antiviral activity: exhibits both intracellular and extracellular activity
[7]; Human alphaherpesvirus 1, extracellular, HSV-1 + 1 × Cmpd (10 μM), relative viral conc 10
  inhibition at 10 µM: 82%
[7]; Human alphaherpesvirus 1, extracellular, HSV-1 + 1 × Cmpd (10 μM), relative viral conc 100
  inhibition at 10 µM: 76%
[7]; Human alphaherpesvirus 1, extracellular, relative viral conc 10
  inhibition at 20 µM: 98%
[7]; Human alphaherpesvirus 1, extracellular, relative viral conc 100
  inhibition at 20 µM: 95%
[7]; Human alphaherpesvirus 1, read-out: % Inhibition of Plaque Forming Units, Extracellularly, HSV-1, 10 μM
  inhibition at 10 µM: 76.4 ± 2.2%
[7]; Human alphaherpesvirus 1, read-out: reduction (PFU), extracellularly, HSV-1, 10 μM level, P<0.01
  inhibition at 10 µM: 76 to 98%
[7]; HSV-1 + 1 × Cmpd (10 μM), relative viral conc 10
  Plaque Forming Units Mean ± SD: 2.6 ± 1.6
[7]; HSV-1 + 1 × Cmpd (10 μM), relative viral conc 100
  Plaque Forming Units Mean ± SD: 40.6 ± 3.8

Source: patent US5185366A, “Method for treatment and prevention of diseases caused by enveloped viruses, including herpes simplex virus types 1 and 2 diseases, using 3,4-dihydroxy-2H-benzopyran-2H-one” (Ohio State University Research Foundation, priority 1990, dated 1993)
